Experimental findings from patent publication US20230002324A1, “NAPHTHOQUINONE DERIVATIVES FOR TREATMENT OF OXIDATIVE STRESS DISORDERS” (PTC THERAPEUTICS, INC., priority 2019, published 2023) are described below.

The term EC50 denotes the concentration that produces a half-maximal response.

The first test concerns Q7 cells (ST HDH Q7/7; immortalized mouse striatal cells). Nature of the test: Q7 Cystine Deprivation cell survival (rescue) assay. The class given is cell-based. Particulars: Q7 cells, cystine-free medium, 18 h, Cell Titer Glo, 50% relative viability vs Vitamin K2 (1 micromolar), read-out: Q7 Cystine Deprivation Survival EC50. The text has this:
(§1) In neuronal cells excess extracellular glutamate inhibits the cystine/glutamate antiporter leading to intracellular cysteine depletion, GSH depletion, reactive oxygen species (ROS) production and cell death, a phenomenon termed oxidative glutamate toxicity, oxytosis, or ferroptosis. […] Q7 cells (ST HDH Q7/7; immortalized mouse striatal cells) challenged with cystine-free media or the selective, irreversible GPX4 inhibitor, methyl (1S,3R)-2-(2-chloroacetyl)-1-(4-(methoxycarbonyl)phenyl)-2,3,4,9-tetrahydro-1H-pyrido[3,4-b]indole-3-carboxylate (hereafter referred to as RSL3), recapitulate this phenotype, as do normal human fibroblasts (NHF) challenged with RSL3. An initial screen was performed to identify compounds effective in rescuing Q7 and/or NHF cells from death resulting from cystine deprivation or RSL3 challenge. This method is further described in Yonezawa et al., J. Neurochem 67, 566-573 (1996), Li et al., J Neurosci., 23, 5816-5826 (2003), Yang and Stockwell, Chem Biol., 15: 234-45 (2008), and Yang et al., Cell 156, 317-331 (2014). See also Hinman A, Holst C R, Latham J C, et al. Vitamin E hydroquinone is an endogenous regulator of ferroptosis via redox control of 15-lipoxygenase. PLoS One. 2018; 13(8):e0201369. Published 2018 Aug. 15. doi:10.1371/journal.pone.0201369; and Kahn-Kirby A H, Amagata A, Maeder C I, et al. Targeting ferroptosis: A novel therapeutic strategy for the treatment of mitochondrial disease-related epilepsy. PLoS One. 2019; 14(3):e0214250. Published 2019 Mar. 28. doi:10.1371/journal.pone.0214250.
(§2) DMEM (Catalog no. 11995-040), DMEM without Cystine (Catalog no. 21013-024), DMEM without Glucose (Catalog A1443001), PBS (Phosphate buffered saline), Penicillin-streptomycin mix, L-Glutamine, Glucose, Phenol Red, and Pyruvate were purchased from ThermoFisher Scientific (Gibco). Fetal Bovine Serum was obtained from Mediatech, Inc., or Sigma Aldrich. Mouse striatum derived ST HDH Q7/7 (Q7) and normal human skin fibroblast (NHF, product number GM21811) cells were obtained from the Coriell Institute. Methionine and Vitamin K2 were purchased from Sigma Aldrich. RSL3 was synthesized as previously described (see e.g. US Patent Publication US2010/0081654). Cell Titer Glo 2.0 was purchased from Promega. Q7 cell culture medium (Q7 growth medium) was made by combining 50 mL Fetal Bovine Serum, 100 U/mL penicillin, and 100 microgram/mL streptomycin; DMEM was added to make the volume up to 500 mL. Assay medium for the Cystine Deprivation assay was prepared by combining 50 mL Fetal Bovine Serum, 100 U/mL penicillin, 100 microgram/mL streptomycin, 4 mM L-Glutamine, 1 mM Pyruvate and 30 mg/L Methionine; DMEM without Cystine was added to make the volume up to 500 mL. NHF cell culture medium (NHF growth medium) was made by combining 50 mL Fetal Bovine Serum, 100 U/mL penicillin, 100 microgram/mL streptomycin, 2.8 mL 20% Glucose solution (final concentration 6 mM), L-glutamine (final concentration 2 mM), phenol red (final concentration 15 mg/L); DMEM without Glucose was added to make the volume up to 500 mL. Assay medium for the RSL3 challenge assay was identical to Growth medium. While not in use during the course of the experiments, these solutions were stored at 4° C. The cells were grown in 150-cm^2 tissue culture-treated flasks. Every third or fourth day, the cells were sub-cultured by trypsinization and re-seeded at a cell density of 600,000 (Q7) or 300,000 (NHF) cells per flask.
(§3) Q7 or NHF cells were cultured routinely as described herein. For 384-well cell survival assays, cells were seeded in clear bottom, black wall 384-well tissue culture-treated polystyrene plates by re-suspending a cell suspension at a density of 50,000 cells/mL in growth medium, then dispensing 60 microliters of cell suspension per well using either an electronic multichannel pipette or a Multidrop™ Combi Reagent Dispenser (ThermoFisher Scientific), corresponding to 3,000 cells/well. […]
As to `CCCC1=C(Cc2ccc(C)cn2)C(=O)c2ccccc2C1=O` [Example 115, 2-((5-methylpyridin-2-yl)methyl)-3-propylnaphthalene-1,4-dione], the EC50 was less than 50 nM.
Consider `CCCC1=C(Cc2ncc(F)cc2F)C(=O)c2ccccc2C1=O` [Example 117, 2-((3,5-difluoropyridin-2-yl)methyl)-3-propylnaphthalene-1,4-dione], for which the EC50 was less than 50 nM.
Same read-out and setting: to `CCCC1=C(Cc2cc(C(F)(F)F)c(F)cn2)C(=O)c2ccccc2C1=O` [Example 119, 2-((5-fluoro-4-(trifluoromethyl)pyridin-2-yl)methyl)-3-propylnaphthalene-1,4-dione] belongs less than 50 nM.
On the same count and under the same terms, to `O=C1C(CCC2COC2)=C(Cc2ccc(F)cn2)C(=O)c2ccccc21` [Example 121, 2-((5-fluoropyridin-2-yl)methyl)-3-(2-(oxetan-3-yl)ethyl)naphthalene-1,4-dione] belongs less than 50 nM; to `COC(C1=C(C)C(=O)c2ccccc2C1=O)c1ccc(C(F)(F)F)cn1` (centres unmarked) [Example 124, 2-(methoxy(5-(trifluoromethyl)pyridin-2-yl)methyl)-3-methylnaphthalene-1,4-dione], less than 50 nM.
The same measure, in the same setting: to `O=C1C(O)=C(Cc2ccc(C(F)(F)F)cn2)C(=O)c2ccccc21` [Example 125, 2-hydroxy-3-((5-(trifluoromethyl)pyridin-2-yl)methyl)naphthalene-1,4-dione] belongs greater than 1000 nM.

In another test the test system is normal human fibroblasts (NHF, GM21811). As to the kind of experiment: NHF GM21811 RSL3 challenge cell survival (rescue) assay. Type of test: cell-based. Particulars: Fibroblast, NHF cells, RSL3 2 micromolar, 48 h, Cell Titer Glo, read-out: NHF GM21811 RSL3 Survival EC50.
Source text: as §1, §2, §3
(ATP-based viability assays read luminescence as a measure of living cells.)
`CCC1=C(Cc2ccc(C(F)(F)F)cn2)C(=O)c2cccc(F)c2C1=O` [Example 61, 3-ethyl-5-fluoro-2-((5-(trifluoromethyl)pyridin-2-yl)methyl)naphthalene-1,4-dione]: the EC50 is less than 50 nM.
The same measure, in the same setting: then `CCC1=C(Cc2ccc(C(C)(F)F)cn2)C(=O)c2c(F)ccc(F)c2C1=O` [Example 62, 2-((5-(1,1-difluoroethyl)pyridin-2-yl)methyl)-3-ethyl-5,8-difluoronaphthalene-1,4-dione], with less than 50 nM; and `CCC1=C(Cc2ccc(C(F)(F)F)cn2)C(=O)c2c(ccc(F)c2F)C1=O` [Example 63, 2-ethyl-5,6-difluoro-3-((5-(trifluoromethyl)pyridin-2-yl)methyl)naphthalene-1,4-dione], with less than 50 nM.
The same measure, in the same setting: then `CCC1=C(Cc2ncc(C(F)(F)F)cc2F)C(=O)c2c(F)cc(F)cc2C1=O` [Example 64, 2-ethyl-5,7-difluoro-3-((3-fluoro-5-(trifluoromethyl)pyridin-2-yl)methyl)naphthalene-1,4-dione], with less than 50 nM.
For `O=C1C(C2CC2)=C(Cc2ccc(C(F)(F)F)cn2)C(=O)c2c(F)cc(F)cc21` [Example 65, 2-cyclopropyl-5,7-difluoro-3-((5-(trifluoromethyl)pyridin-2-yl)methyl)naphthalene-1,4-dione], the EC50 is less than 50 nM.
The same measure, in the same setting: to `CCC1=C(Cc2cc(C(F)(F)F)c(C)cn2)C(=O)c2c(F)ccc(F)c2C1=O` [Example 66, 2-ethyl-5,8-difluoro-3-((5-methyl-4-(trifluoromethyl)pyridin-2-yl)methyl)naphthalene-1,4-dione] belongs less than 50 nM; to `CCC1=C(Cc2ccc(C(F)F)cn2)C(=O)c2c(F)cc(F)cc2C1=O` [Example 67, 3-((5-(difluoromethyl)pyridin-2-yl)methyl)-2-ethyl-5,7-difluoronaphthalene-1,4-dione], less than 50 nM.
On the same count and under the same terms, then `CCC1=C(Cc2cccc(OC)n2)C(=O)c2c(F)ccc(F)c2C1=O` [Example 89, 2-ethyl-5,8-difluoro-3-((6-methoxypyridin-2-yl)methyl)naphthalene-1,4-dione], with less than 50 nM; and `O=C1C(Cc2ccc(C(F)(F)F)cn2)=C(CC2COC2)C(=O)c2c(F)ccc(F)c21` [Example 90, 5,8-difluoro-2-(oxetan-3-ylmethyl)-3-((5-(trifluoromethyl)pyridin-2-yl)methyl)naphthalene-1,4-dione], with less than 50 nM; and `O=C1C(Cc2ccc(C(F)(F)F)cn2)=C(C2CC2)C(=O)c2c(F)ccc(F)c21` [Example 91, 2-cyclopropyl-5,8-difluoro-3-((5-(trifluoromethyl)pyridin-2-yl)methyl)naphthalene-1,4-dione], with less than 50 nM.
The same measure, in the same setting: to `CCC1=C(Cc2ccc(F)cn2)C(=O)c2c(F)cc(F)cc2C1=O` [Example 92, 2-ethyl-5,7-difluoro-3-((5-fluoropyridin-2-yl)methyl)naphthalene-1,4-dione] belongs less than 50 nM; to `CCC1=C(Cc2ccc(C(F)(F)F)c(C#N)n2)C(=O)c2c(F)cc(F)cc2C1=O` [Example 93, 6-((3-ethyl-6,8-difluoro-1,4-dioxo-1,4-dihydronaphthalen-2-yl)methyl)-3-(trifluoromethyl)picolinonitrile], less than 50 nM; to `CCC1=C(Cc2ncc(C(F)(F)F)cc2Cl)C(=O)c2c(F)cc(F)cc2C1=O` [Example 94, 3-((3-chloro-5-(trifluoromethyl)pyridin-2-yl)methyl)-2-ethyl-5,7-difluoronaphthalene-1,4-dione], less than 50 nM.
Take `N#Cc1nc(CC2=C(C3CC3)C(=O)c3cc(F)cc(F)c3C2=O)ccc1C(F)(F)F` [Example 95, 6-((3-cyclopropyl-6,8-difluoro-1,4-dioxo-1,4-dihydronaphthalen-2-yl)methyl)-3-(trifluoromethyl)picolinonitrile]: the EC50 is less than 50 nM.
Still for that read-out and setting: to `N#Cc1nc(CC2=C(C3CC3)C(=O)c3cc(F)ccc3C2=O)ccc1C(F)(F)F` [Example 96, 6-((3-cyclopropyl-6-fluoro-1,4-dioxo-1,4-dihydronaphthalen-2-yl)methyl)-3-(trifluoromethyl)picolinonitrile] belongs less than 50 nM; to `CCC1=C(Cc2ccc(C)c(OC)n2)C(=O)c2c(F)ccc(F)c2C1=O` [Example 97, 2-ethyl-5,8-difluoro-3-((6-methoxy-5-methylpyridin-2-yl)methyl)naphthalene-1,4-dione], less than 50 nM; to `[2H]C([2H])([2H])C1=C(Cc2ccc(C(F)(F)F)c(C(N)=O)n2)C(=O)c2c(F)ccc(F)c2C1=O` [Example 126, 6-((5,8-difluoro-3-(methyl-d3)-1,4-dioxo-1,4-dihydronaphthalen-2-yl)methyl)-3-(trifluoromethyl)picolinamide], less than 50 nM.
Regarding `[2H]C([2H])([2H])C1=C(Cc2ccc(C(F)(F)F)c(C(=O)O)n2)C(=O)c2c(F)ccc(F)c2C1=O` [Example 127, 6-((5,8-difluoro-3-(methyl-d3)-1,4-dioxo-1,4-dihydronaphthalen-2-yl)methyl)-3-(trifluoromethyl)picolinic acid], the EC50 was 50 to 250 nM.
The same measure, in the same setting: then `CCC1=C(Cc2ccc(F)c(C#N)n2)C(=O)c2c(F)ccc(F)c2C1=O` [Example 132, 6-((3-ethyl-5,8-difluoro-1,4-dioxo-1,4-dihydronaphthalen-2-yl)methyl)-3-fluoropicolinonitrile], with less than 50 nM; and `CCC1=C(Cc2ccc(CC(F)(F)F)cn2)C(=O)c2c(F)ccc(F)c2C1=O` [Example 133, 2-ethyl-5,8-difluoro-3-((5-(2,2,2-trifluoroethyl)pyridin-2-yl)methyl)naphthalene-1,4-dione], with less than 50 nM.
